Data on 53 compounds can be found in patent US6762188B1, “Pharmaceutically active benzoquinazoline compounds” (SmithKline Beecham Corporation, priority 1990, dated 2004).

For one assay, the system named is SW480 human colon adenocarcinoma. The experiment in a line: Tumor cell culture cytotoxicity (MTT dye reduction), SW480. Particulars: Homo sapiens, SW480, read-out: Tumor Cell Culture Cytotoxicity IC50 SW480, Table C, 5,6-dihydro 3-amino derivatives. (Formazan colour is commonly taken as a measure of viable cells.)
Experimental: SW480 and WiDr colon adenocarcinomas, MCF-7 breast adenocarcinoma, A427 lung carcinoma and MOLT-4 T-cell leukemia were used for the primary screening of compounds. […] MCF-7, A427 and SW480 were grown in the above medium further supplemented with sodium pyruvate.
Cells are seeded into 96-well plates using a Perkin-Elmer Pro/pette. SW480 and A427 were seeded at 8,000 cells per well, MCF-7 at 10,000, Widr at 7500, and MOLT-4 at 12,500 cells per well, all in 150 µl of medium. Prior to the addition of drugs, cultures were incubated for 24 hrs at 37°. Compounds were added at 2×concentration in 150 l of medium and each concentration was assayed in triplicate. If DMSO or ethanol were used to solubilize compounds, appropriate controls were run if the concentration exceeded 0.01%. Cultures were incubated for 72 hours (96 hours for SW480 and MCF-7) in a 37° humidified incubator at 5% CO2. Inhibition of cell growth was measured using the MTT dye reduction assay.
Cell dilutions for a standard curve were prepared from a 72 hour log-phase culture. Serial dilutions were seeded in triplicate in 96-well plates and incubated at 37 degrees for one hour. MTT (3-(4,5-dimethylthiazol-2-yl)-2,5-diphenyltetrazolium bromide) was dissolved in PBS at 5 mg/ml and sonicated for 30 seconds. Using the Perkin Elmer Pro/pette, 200 μl of medium was removed and 100 μl of MTT added to the wells of the standard curve and test plates. Suspension cultures were spun for 5 min at 1000 rpm before removing medium from the wells. Plates were incubated for 1 hour at 370 on a platform shaker. Following this incubation 100 ml of medium was removed from the wells and 100 μl of DMSO added to each well. The plates were sonicated for approximately 10 seconds to solubilize the precipitated formazan dye. The absorbance of each well was measured using a Titertek Multiscan MC microtiter plate reader at 570 nm with a reference wavelength of 750 nm. Data was collected using a Mariachi Seed-2 and stored and analyzed using an IBM-AT and Lotus 1-2-3 software.
On to `CCN(CC)S(=O)(=O)c1cc2c(cc1Br)CCc1nc(N)[nH]c(=O)c1-2` [3-Amino-8-bromo-N,N-diethyl-1,2,5,6-tetrahydro-1-oxobenzo(f)quinazoline-9-sulfonamide], for which the IC50 turned out to be 7.5 µM.

The assay is the same for the next values; noted with them: Homo sapiens, SW480, read-out: Tumor Cell Culture Cytotoxicity IC50 SW480, Table E, fully aromatic 3-methyl derivatives.
`Cc1nc2ccc3ccc(CNc4ccc(C(=O)CC(CCC(=O)O)C(=O)O)cc4)cc3c2c(=O)[nH]1` (racemic) [(RS)-2-(2-(4-(((1,2-Dihydro-3-methyl-1-oxobenzo[f]quinazolin-9-yl)methyl)amino)phenyl)-2-oxoethyl)glutaric acid]: the IC50 was found to be 0.03 µM.
Same read-out and setting: in the case of `Cc1nc2ccc3ccc(CNc4ccc([N+](=O)[O-])cc4)cc3c2c(=O)[nH]1` [3-Methyl-9-((4-nitroanilino)methyl)benzo)(f)quinazolin-1(2H)-one] it was 0.4 µM; in that of `Cc1nc2ccc3ccc(CNc4ccccc4)cc3c2c(=O)[nH]1` [3-Methyl-9-(anilinomethyl)benzo(f)quinazolin-1(2H)-one], 7 µM; in that of `Cc1nc2ccc3ccc(Oc4ccc(C#N)cc4)cc3c2c(=O)[nH]1` [4-((1,2-Dihydro-3-methyl-1-oxobenzo[f]quinazolin-9-yl)oxy)benzonitrile], greater than 10 µM.
Same read-out and setting: with `Cc1nc2ccc3ccc(CNc4ccc(C#N)cc4)cc3c2c(=O)[nH]1` [4-(((1,2-Dihydro-3-methyl-1-oxobenzo(f)quinazolin-9-yl)methyl)amino)benzonitrile] the figure was 0.03 µM; with `Cc1nc2ccc3ccc(CNc4ccc(C(=O)O)cc4)cc3c2c(=O)[nH]1` [4-(((1,2-Dihydro-3-methyl-1-oxobenzo[f]quinazolin-9-yl)methyl)amino)benzoic acid], 2.2 µM.

The target of a further assay is T1, Mammalian Thymidylate Synthase (Homo sapiens, UniProt P04818).
T1 construct: made in house; host or cells: Escherichia coli
T1 sequence (P04818 whole entry): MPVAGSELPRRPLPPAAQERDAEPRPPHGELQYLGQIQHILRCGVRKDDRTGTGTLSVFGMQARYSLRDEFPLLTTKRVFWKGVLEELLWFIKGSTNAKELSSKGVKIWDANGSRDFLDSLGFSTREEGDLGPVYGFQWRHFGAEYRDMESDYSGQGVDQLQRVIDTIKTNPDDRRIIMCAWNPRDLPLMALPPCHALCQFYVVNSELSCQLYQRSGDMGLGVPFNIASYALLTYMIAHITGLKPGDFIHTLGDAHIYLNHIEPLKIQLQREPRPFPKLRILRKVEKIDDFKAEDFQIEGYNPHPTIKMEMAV
As to the kind of experiment: Thymidylate synthase inhibition, tritium release assay. The class given is biochemical.
Conditions: not given
`Cc1nc2c(c(=O)[nH]1)-c1cc(S(=O)(=O)Cl)ccc1CC2` [1,2,5,6-Tetrahydro-3-methyl-1-oxobenzo(f)quinazoline-9-sulfonylchloride]: the IC50 lay within 1 to 300 µM.
In the case of `Nc1nc(O)c2c(ccc3cc(N)c(Br)cc32)n1` [3,8-Diamino-9-bromobenzo(f)quinazolin-1(2H)-one], the IC50 is less than 1 µM.
Consider `Nc1nc2c(c(=O)[nH]1)-c1ccc(S(N)(=O)=O)cc1CC2` [3-Amino-1,2,5,6-tetrahydro-1-oxobenzo(f)quinazoline-8-sulfonamide], for which the IC50 lay within 1 to 300 µM.
Still for that read-out and setting: with `Nc1nc(O)c2c(n1)CCc1cc([N+](=O)[O-])ccc1-2` [3-Amino-5,6-dihydro-8-nitro(f)quinazolin-1(2H)-one] the figure was 1 to 300 µM.
In the case of `Nc1nc2ccc3cc(Cl)c(Cl)cc3c2c(=O)[nH]1` [3-Amino-8,9-dichlorobenzo(f)quinazolin-1(2H)-one], the IC50 is less than 1 µM.
On to `Nc1nc2ccc3cc(F)ccc3c2c(=O)[nH]1` [3-Amino-8-fluorobenzo(f)quinazolin-1(2H)-one], for which the IC50 was 1 to 300 µM.
Same read-out and setting: with `Nc1nc2ccc3cc([N+](=O)[O-])c(Br)cc3c2c(=O)[nH]1` [3-Amino-9-bromo-8-nitrobenzo(f)quinazolin-1(2H)-one] the figure was 1 to 300 µM; with `Nc1nc(O)c2c(ccc3ccc(Br)cc32)n1` [3-Amino-9-bromobenzo(f)quinazolin-1(2H)-one], less than 1 µM.
The same measure, in the same setting: with `Nc1nc2ccc3ccc(Cl)cc3c2c(=O)[nH]1` [3-Amino-9-chlorobenzo(f)quinazolin-1(2H)-one] the figure was less than 1 µM; with `CCOc1ccc2ccc3nc(N)[nH]c(=O)c3c2c1` [3-Amino-9-ethoxybenzo(f)quinazolin-1(2H)-one], 1 to 300 µM.
On the same count and under the same terms, in the case of `C#Cc1ccc2ccc3nc(N)[nH]c(=O)c3c2c1` [3-Amino-9-ethynylbenzo(f)quinazolin-1(2H)-one] it was less than 1 µM; in that of `Nc1nc(O)c2c(ccc3ccc(F)cc32)n1` [3-Amino-9-fluorobenzo(f)quinazolin-1(2H)-one], less than 1 µM; in that of `Nc1nc(O)c2c(ccc3ccc(I)cc32)n1` [3-Amino-9-iodobenzo(f)quinazolin-1(2H)-one], less than 1 µM.
In turn, `COc1ccc2ccc3nc(N)[nH]c(=O)c3c2c1` [3-Amino-9-methoxybenzo(f)quinazolin-1(2H)-one] had an IC50 of 1 to 300 µM.
The same measure, in the same setting: with `CN(C)S(=O)(=O)c1ccc2ccc3nc(N)[nH]c(=O)c3c2c1` [3-Amino-N,N-dimethyl-1,2-dihydro-1-oxobenzo(f)quinazoline-9-sulfonamide] the figure was 1 to 300 µM.
On the same count and under the same terms, with `Nc1nc2ccc3ccc(NS(=O)(=O)c4ccc(C(=O)O)cc4)cc3c2c(=O)[nH]1` [4-(((3-Amino-1,2-dihydro-1-oxobenzo(f)quinazolin-9-yl)amino)sulfonyl)benzoic acid] the figure was less than 1 µM; with `Cc1nc2ccc3ccc(S(=O)(=O)Nc4ccc(C(=O)N[C@@H](CCC(=O)O)C(=O)O)cc4)cc3c2c(=O)[nH]1` [N-(4-((1,2-Dihydro-3-methyl-1-oxabenzo(f)quinazolin-9-yl)sulfonamido)benzoyl)-L-glutamic acid], less than 1 µM.

The assay is the same for the next values; noted with them: Table A; vs. mammalian enzymes; read-out: I50.
With `Nc1nc(O)c2c(ccc3c(N)cccc32)n1` [3,7-Diaminobenzo(f)quinazolin-1(2H)-one], the IC50 lay within 1 to 300 µM.
`Nc1cc(N)c2c(ccc3nc(N)[nH]c(=O)c32)c1` [3,8,10-Triaminobenzo(f)quinazolin-1(2H)-one]: the IC50 was 1 to 300 µM.
On to `Nc1ccc2c(c1)CCc1nc(N)[nH]c(=O)c1-2` [3,8-Diamino-5,6-dihydrobenzo(f)quinazolin-1(2H)-one], for which the IC50 was in the range of 1 to 300 µM.
The same measure, in the same setting: in the case of `Nc1nc2ccc3c(Br)c(N)c(Br)cc3c2c(=O)[nH]1` [3,8-Diamino-7,9-dibromobenzo(f)quinazolin-1(2H)-one] it was 1 to 300 µM; in that of `Nc1ccc2c(c1)-c1c(nc(N)[nH]c1=O)CC2` [3,9-Diamino-5,6-dihydrobenzo(f)quinazolin-1(2H)-one], 1 to 300 µM; in that of `Nc1nc(O)c2c(ccc3cccc(N)c32)n1` [3,10-diaminobenzo(f)quinazolin-1(2H)-one], 1 to 300 µM.
Still for that read-out and setting: with `CC1(C)Cc2nc(N)nc(O)c2-c2ccccc21` [3-Amino-5,6-dihydro-6,6-dimethylbenzo(f)quinazolin-1(2H)-one] the figure was 1 to 300 µM; with `CC1Cc2nc(N)nc(O)c2-c2ccccc21` (centres unmarked) [3-Amino-5,6-dihydro-6-methylbenzo(f)quinazolin-1(2H)-one], 1 to 300 µM.
With `Cc1cc(C)c2c(c1)-c1c(nc(N)[nH]c1=O)CC2` [3-Amino-5,6-dihydro-7,9-dimethylbenzo(f)quinazolin-1(2H)-one], the IC50 lay in the range of 1 to 300 µM.
The same measure, in the same setting: in the case of `Nc1nc(O)c2c(n1)CCc1c(I)cccc1-2` [3-Amino-5,6-dihydro-7-iodobenzo(f)quinazolin-1(2H)-one] it was 1 to 300 µM; in that of `Cc1cccc2c1CCc1nc(N)[nH]c(=O)c1-2` [3-Amino-5,6-dihydro-7-methylbenzo(f)quinazolin-1(2H)-one], 1 to 300 µM; in that of `Nc1nc2c(c(=O)[nH]1)-c1cc(O)ccc1CC2` [3-Amino-5,6-dihydro-9-hydroxybenzo(f)quinazolin-1(2H)-one], 1 to 300 µM.
Turning to `Cc1ccc2c(c1)-c1c(O)nc(N)nc1CC2` [3-Amino-5,6-dihydro-9-methylbenzo(f)quinazolin-1(2H)-one], the IC50 is less than 1 µM.
Still for that read-out and setting: in the case of `Nc1nc(O)c2c(cc(CO)c3ccccc32)n1` [3-Amino-6-(hydroxymethyl)benzo(f)quinazolin-1(2H)-one] it was 1 to 300 µM; in that of `Cc1cc2nc(N)[nH]c(=O)c2c2ccccc12` [3-Amino-6-methylbenzo(f)quinazolin-1(2H)-one], 1 to 300 µM.
Same read-out and setting: in the case of `Cc1cc(C)c2ccc3nc(N)[nH]c(=O)c3c2c1` [3-Amino-7,9-dimethylbenzo(f)quinazolin-1(2H)-one] it was 1 to 300 µM.
Turning to `Nc1nc2c(c(=O)[nH]1)-c1cccc(Br)c1CC2` [3-Amino-7-bromo-5,6-dihydrobenzo(f)quinazolin-1(2H)-one], the IC50 was 1 to 300 µM.
The same measure, in the same setting: with `Nc1nc2c(c(=O)[nH]1)-c1cccc(F)c1CC2` [3-Amino-7-fluoro-5,6-dihydrobenzo(f)quinazolin-1(2H)-one] the figure was 1 to 300 µM; with `Nc1nc2ccc3cc([N+](=O)[O-])cc([N+](=O)[O-])c3c2c(=O)[nH]1` [3-Amino-8,10-dinitrobenzo(f)quinazolin-1(2H)-one], 1 to 300 µM.
On the same count and under the same terms, in the case of `Nc1nc(O)c2c(ccc3cc(Br)c([N+](=O)[O-])cc32)n1` [3-Amino-8-bromo-9-nitrobenzo(f)quinazolin-1(2H)-one] it was 1 to 300 µM; in that of `CC1Cc2nc(N)nc(O)c2-c2ccc(Cl)cc21` (centres unmarked) [3-Amino-8-chloro-5,6-dihydro-6-methylbenzo(f)quinazolin-1(2H)-one], 1 to 300 µM; in that of `Nc1nc2c(c(=O)[nH]1)-c1ccc(Cl)cc1CC2` [3-Amino-8-chloro-5,6-dihydrobenzo(f)quinazolin-1(2H)-one], 1 to 300 µM.
The same measure, in the same setting: in the case of `Cc1cc2nc(N)[nH]c(=O)c2c2ccc(Cl)cc12` [3-Amino-8-chloro-6-methylbenzo(f)quinazolin-1(2H)-one] it was 1 to 300 µM; in that of `Nc1nc2ccc3cc(Cl)ccc3c2c(=O)[nH]1` [3-Amino-8-chlorobenzo(f)quinazolin-1(2H)-one], 1 to 300 µM; in that of `CCSc1ccc2ccc3nc(N)nc(O)c3c2c1` [3-Amino-9-(ethylthio)benzo(f)quinazolin-1(2H)-one], 1 to 300 µM.
`CSc1ccc2ccc3nc(N)nc(O)c3c2c1` [3-Amino-9-(methylthio)benzo(f)quinazolin-1(2H)-one]: the IC50 was less than 1 µM.
On to `CC1Cc2nc(N)nc(O)c2-c2cc(Cl)ccc21` (centres unmarked) [3-Amino-9-chloro-5,6-dihydro-6-methylbenzo(f)quinazolin-1(2H)-one], for which the IC50 was less than 1 µM.
In the case of `Nc1nc2ccc3cccc([N+](=O)[O-])c3c2c(=O)[nH]1` [3-Amino-10-nitrobenzo(f)quinazolin-1(2H)-one], the IC50 was 1 to 300 µM.
Regarding `Cc1nc2c(c(=O)[nH]1)-c1cccc(Cl)c1CC2` [7-Chloro-5,6-dihydro-3-methylbenzo(f)quinazolin-1(2H)-one], the IC50 was 1 to 300 µM.
